According to patent US12070457B2, “Substituted pyridines, pyridazines, pyrimidines, and 1,2,3-triazines as bruton's tyrosine kinase inhibitors” (HUTCHISON MEDIPHARMA LIMITED, priority 2020, dated 2024):

How the values were obtained:
[1] = Study on in vivo pharmacokinetics in mice; set-up: species or system mouse; details: mice, intragastric, 10 mg/kg
From the text: Example 6 Study on In Vivo Pharmacokinetics in Mice
Solutol HS15 was purchased from BASF, Germany, ethanol (anhydrous) was purchased from Nanjing Chemical Reagent Co., Ltd., physiological saline was purchased from Huayu (Wuxi) Pharmaceutical Co., Ltd., dimethyl sulfoxide (DMSO) and sodium carboxymethyl cellulose 800-1200 (CMC-Na) were purchased from Sinopharm Chemical Reagent Co., Ltd.
Preparation of ethanol/Solutol mixed solution (1:1, v/v): taking an appropriate amount of Solutol HS15 in a centrifuge tube and placing in a 37° C. water bath until dissolved, placing on the bench top to room temperature, taking 1 mL of Solutol in a centrifuge tube containing 1 mL of ethanol and mixing well to obtain the mixed solution.
Taking an appropriate amount of stock solution and placing in a blank centrifuge tube, adding an appropriate amount of ethanol/Solutol mixed solution prepared in advance, vortexing, then adding an appropriate amount of physiological saline, and mixing well until a transparent liquid.
3. Administration to Animals and Sample Collection:
Male ICR mice were purchased from Shanghai Lingchang Biotechnology Co., Ltd. 18 mice were randomly divided into intravenous administration group and intragastric administration group. The mice were fasted overnight before administration. The mice were withheld food but allowed to access water freely within 4 hours after administration, and allowed to freely access food and water after 4 hours. After anesthesia with isoflurane, blood was collected from the retroorbital venous plexus and placing in an centrifuge tube containing anticoagulant, and the centrifuge tube was stored in an box containing wet ice until the plasma was centrifuged.
The plasma samples were pre-treated and then analyzed by liquid chromatography-tandem mass spectrometry (LC-MS/MS), the instrument model was API5500. The analytical chromatographic column was Waters XSELECT HSS T3 C18 column (50×2.1 mm, 2.5 μm). In the mobile phases, deionized water containing 0.1% formic acid and 0.1% acetonitrile was used as the aqueous phase and acetonitrile containing 0.1% formic acid was used as the organic phase. The concentrations of the compound in the samples were determined as follows. Firstly, a standard curve was established, and the peak area ratios of the compound 19 to the internal standard in the standard curve were used as indexes. The theoretical concentrations of compound 19 and the peak area ratios of compound 19 to the internal standard were fitted with a quadratic regression equation to obtain the regression equation. The sample concentrations were calculated by measuring the peak area ratio of the compound of the test sample to the internal standard according to the standard curve.

[2] = Stability test in liver microsomes (rat); assay type: in vitro ADME; details: rat liver microsomes, 1 μM compound, 30 min
From the text: (§1) Example 5 Stability Test in Liver Microsomes
(§2) Both male CD-1 mouse pooled liver microsomes and male SD rat pooled liver microsomes were purchased from BioreclamationIVT Corporation, USA.
(§3) Phenacetin, glucose-6-phosphate dehydrogenase (G-6-PDH) and nicotinamide adenine dinucleotide phosphate (NADP) were all purchased from Sigma-Aldrich Corporation, USA. Glucose-6-phosphate (G-6-P) was purchased from Shanghai Eybridge Chemical Technology Co., Ltd.
(§4) Ten mM test compound stock solution: a certain amount of test compound was weighed, and dissolved with an appropriate volume of DMSO to prepare a stock solution with a concentration of 10 mM for use.
(§5) Reaction stopping solution: an appropriate amount of internal standard compound phenacetin was dissolved in acetonitrile to prepare a reaction stopping solution with a concentration of 1000 ng/mL for use at room temperature.
(§6) The test compound stock solution was diluted with an organic solvent (usually a mixture of acetonitrile, methanol and water with various ratios, depending on the solubility of the compound, if necessary, 1 N hydrochloric acid or 1 N sodium hydroxide would be added to facilitate solubilization) to the 0.1 mM (the final concentration of the compound in the reaction system was 1 μM) and the concentration percentage of the organic solvents in the incubation system no more than 1% (wherein the percentage of DMSO was required to be no more than 0.1%). An appropriate amount of 100 mM NADP, 500 mM G-6-P and 100 Unit/mL G-6-PDH were mixed and diluted with ultrapure water (the final system contains 1 mM NADP, 5 mM G-6-P and 1 Unit/mL G-6-PDH), pre-incubated in a 37° C. water bath for 10 minutes and then placed on ice for use as a NADPH regeneration solution. 20 mg/mL liver microsomes solution and 200 mM phosphate buffer was mixed, and diluted with ultrapure water to give a liver microsomes solution containing 2.5 mg/mL liver microsomes (the final concentration of the reaction system is 0.5 mg/mL) and 50 mM phosphate buffer. The diluted liver microsomes solution was mixed with 0.1 mM compound solution, a mixture of 100 mM EDTA, 300 mM MgCl2 solution, 200 mM phosphate buffer (the final system was 3 mM MgCl2, 1 mM EDTA and 50 mM phosphate buffer) and water in an appropriate volume was added. Finally, the NADPH regeneration solution was added, then the reaction solution was placed in a 37° C. water bath to start the reaction (the reaction time was 30 minutes), and the reaction was stopped by adding the ice-cold acetonitrile reaction stopping solution containing the internal standard. The 0-minute sample was not incubated in a 37° C. water bath, and its difference from the 30-minute sample further lies in that the ice-cold acetonitrile reaction stopping solution containing the internal standard was added first, and then the NADPH regeneration solution was added. The sample added with the reaction stopping internal standard solution was vortexed and mixed well, and then centrifuged at 4400 rpm for 10 minutes. The supernatant was taken and diluted ten times with 50% methanol for LC-MS/MS analysis.
(§7) LC-MS/MS was used to determine the concentration of the compound in the sample. The percentage of the remaining compound after 30 minutes of incubation comparing with that in the 0-minute sample was calculated using the peak area ratio of the compound to the internal standard as an indicator, to evaluate the metabolic stability of the compound.
(§8) Instrument: API4500, API4000 or LTQ Mass Spectrometer; the liquid phase is UHPLC system (Shimadzu LC-30 AD, model Nexra X2) including liquid delivery unit, column thermostat, detector and autosampler; or Agilent 1200 Binary Pump series HPLC and CTC Autosampler.
(§9) Chromatographic column: Waters XSELECT Hss T3 C18 (2.5 μm, 2.1×50 mm) or […] (5 μm, 2.0×50 mm)
(§10) Mobile phase: • A: water with 0.1% FA (formic acid) (with or without 0.1% ACN (acetonitrile)) • B: acetonitrile with 0.1% FA (formic acid).

[3] = Rat arthritis model induced by type II collagen (CIA); assay type: in vivo; details: 4 mg/kg oral once a day, CIA rats
Method: Example 9 Therapeutic Effect of the Compound of the Present Invention on a Rat Arthritis Model Induced by Type II Collagen
An appropriate amount of bovine type II collagen (CII, Chondrex (Redmond, WA, USA), Cat #20021) was weighed and dissolved in 0.1 mole of acetic acid (SPGC Sinopharm Chemical Reagent Co., Ltd (Shanghai, P.R.China), Cat #: 10000218.), which was formulated into a solution with a concentration of 6 mg/mL, stirred at 4° C. overnight, and added with an equal volume of Freund's incomplete adjuvant (Sigma-Aldrich. (St. Louis, MO, USA), Cat #: SLBW0366.), fully emulsified to prepare an emulsion with a CII concentration of 3 mg/mL. […]
The paw volume was measured on day 8 after immunization, and the left and right hind paw volumes (V) were measured every day after the paw volume increase was detected. […]
The area under the curve (AUC) of the average paw volume change is the area under the curve of the arthrosis score change calculated by the trapezoid method, and the calculation formula is: AUCpaw volume=½×(APSd1+APSd2)λ(d2−d1)+½×(APSd2+APSd3)×(d3-d2)+. . . +½×(APSdn+APSd(n-1))×(dn−dn-1)
ED50 is calculated by XLfit software according to the AUC inhibition ratio of the area under the curve of the average paw volume change. […]

[4] = Stability test in liver microsomes (mouse); assay type: in vitro ADME; details: mouse liver microsomes, 1 μM compound, 30 min
From the text: as §1, §2, §3, §4, §5, §6, §7, §8, §9, §10

C[C@H]1CN(C2COC2)CCN1c1ccc(Nc2cc(-c3ccnc(N4CCn5c(cc6c5CC(C)(C)C6)C4=O)c3CO)cn(C)c2=O)nc1 [GDC-0853, fenebrutinib, reference compound]
T1/2 [1]: 1.5 h
C8 h ([1]; plasma at 8 h): 143 ng/mL
RLM, percentage of remaining compound after 30 minutes of incubation [2]: 81.0%
paw volume compared with vehicle control group [3]: significantly reduced
MLM, percentage of remaining compound after 30 minutes of incubation [4]: 76.3%
